Source: ChEMBL document CHEMBL5154919, “New ZW4864 Derivatives as Small-Molecule Inhibitors for the β-Catenin/BCL9 Protein-Protein Interaction” (ACS Med Chem Lett, 2022)

Molecular target: T1, CYP1A2 (Homo sapiens, UniProt P05177)
T1 sequence (P05177 whole entry): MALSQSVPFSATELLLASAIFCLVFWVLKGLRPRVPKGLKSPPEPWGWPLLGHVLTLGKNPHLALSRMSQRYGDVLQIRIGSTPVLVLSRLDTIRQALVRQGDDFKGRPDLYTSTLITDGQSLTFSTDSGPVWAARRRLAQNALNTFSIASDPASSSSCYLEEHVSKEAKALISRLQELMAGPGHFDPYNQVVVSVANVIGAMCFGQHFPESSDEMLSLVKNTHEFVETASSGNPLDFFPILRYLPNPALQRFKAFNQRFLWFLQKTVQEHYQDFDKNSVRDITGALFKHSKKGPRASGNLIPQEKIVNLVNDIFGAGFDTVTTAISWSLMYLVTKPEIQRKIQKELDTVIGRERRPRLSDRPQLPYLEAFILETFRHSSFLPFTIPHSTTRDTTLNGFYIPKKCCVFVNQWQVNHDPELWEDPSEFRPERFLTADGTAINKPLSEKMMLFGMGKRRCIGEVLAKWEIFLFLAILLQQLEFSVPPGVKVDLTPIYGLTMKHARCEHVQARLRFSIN
Experiment: Inhibition of CYP1A2 in human liver microsomes using phenacetin at 10 uM in presence of NADPH incubated for 10 mins
Format: ADME, Microsome
Conditions: probe phenacetin

Compound | inhibition at 10 min, 10 µM
CC(C)(Oc1cccc(N2CCC[C@@H](C(=O)N(Cc3ccc(-c4cn[nH]c4)cc3)C3CC3)C2)c1)C(=O)N1CCNCC1 | 17%

System: SW480
Experiment: Antiproliferative activity against human SW480 cells assessed as inhibition of cell growth measured by MTS method
Format: functional, cell-based
Conditions: not given

Compound | IC50
CC(C)(Oc1cccc(N2CCC[C@@H](C(=O)N(Cc3ccc(-c4ccnc5[nH]ccc45)cc3)C3CC3)C2)c1)C(=O)N1CCNCC1 | 10 µM
CC(C)(Oc1cccc(N2CCC[C@@H](C(=O)N(Cc3ccc(-c4c[nH]c5ncccc45)cc3)C3CC3)C2)c1)C(=O)N1CCNCC1 | 9.7 µM

System: MDA-MB-231
Experiment: Antiproliferative activity against human MDA-MB-231 cells assessed as inhibition of cell growth measured by MTS method
Format: functional, cell-based
Conditions: not given

Compound | IC50
CC(C)(Oc1cccc(N2CCC[C@@H](C(=O)N(Cc3ccc(-c4ccnc5[nH]ccc45)cc3)C3CC3)C2)c1)C(=O)N1CCNCC1 | 6.5 µM
CC(C)(Oc1cccc(N2CCC[C@@H](C(=O)N(Cc3ccc(-c4c[nH]c5ncccc45)cc3)C3CC3)C2)c1)C(=O)N1CCNCC1 | 4.6 µM

Molecular target: CYP3A4 (Homo sapiens, UniProt P08684)
Sequence (P08684 whole entry): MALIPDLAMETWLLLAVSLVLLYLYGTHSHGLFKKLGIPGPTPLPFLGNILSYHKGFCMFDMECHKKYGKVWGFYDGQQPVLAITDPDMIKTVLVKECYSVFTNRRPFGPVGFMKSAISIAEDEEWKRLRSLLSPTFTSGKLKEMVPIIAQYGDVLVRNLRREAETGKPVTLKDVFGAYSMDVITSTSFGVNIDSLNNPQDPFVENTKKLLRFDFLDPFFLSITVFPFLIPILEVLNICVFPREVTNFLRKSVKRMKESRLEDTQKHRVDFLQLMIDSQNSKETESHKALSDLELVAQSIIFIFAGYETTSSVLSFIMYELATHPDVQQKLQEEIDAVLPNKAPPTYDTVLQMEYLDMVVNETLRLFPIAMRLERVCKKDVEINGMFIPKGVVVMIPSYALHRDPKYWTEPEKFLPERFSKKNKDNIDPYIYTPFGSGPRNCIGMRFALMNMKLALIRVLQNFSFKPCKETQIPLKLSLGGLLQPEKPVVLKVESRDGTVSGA
Experiment: Inhibition of CYP3A4 in human liver microsomes using Midazolam as substrate at 10 uM in presence of NADPH incubated for 10 mins
Format: ADME, Microsome
Conditions: probe midazolam

Compound | inhibition at 10 min, 10 µM
CC(C)(Oc1cccc(N2CCC[C@@H](C(=O)N(Cc3ccc(-c4cn[nH]c4)cc3)C3CC3)C2)c1)C(=O)N1CCNCC1 | 96%

System: HCT-116
Experiment: Antiproliferative activity against human HCT-116 cells assessed as inhibition of cell growth measured by MTS method
Format: functional, cell-based
Conditions: not given

Compound | IC50
CC(C)(Oc1cccc(N2CCC[C@@H](C(=O)N(Cc3ccc(-c4ccnc5[nH]ccc45)cc3)C3CC3)C2)c1)C(=O)N1CCNCC1 | 7.7 µM
CC(C)(Oc1cccc(N2CCC[C@@H](C(=O)N(Cc3ccc(-c4c[nH]c5ncccc45)cc3)C3CC3)C2)c1)C(=O)N1CCNCC1 | 8.1 µM

Molecular target: T2, beta-catenin-B-cell lymphoma 9 protein complex (Homo sapiens, UniProt P35222)
T2 sequence (P35222 whole entry): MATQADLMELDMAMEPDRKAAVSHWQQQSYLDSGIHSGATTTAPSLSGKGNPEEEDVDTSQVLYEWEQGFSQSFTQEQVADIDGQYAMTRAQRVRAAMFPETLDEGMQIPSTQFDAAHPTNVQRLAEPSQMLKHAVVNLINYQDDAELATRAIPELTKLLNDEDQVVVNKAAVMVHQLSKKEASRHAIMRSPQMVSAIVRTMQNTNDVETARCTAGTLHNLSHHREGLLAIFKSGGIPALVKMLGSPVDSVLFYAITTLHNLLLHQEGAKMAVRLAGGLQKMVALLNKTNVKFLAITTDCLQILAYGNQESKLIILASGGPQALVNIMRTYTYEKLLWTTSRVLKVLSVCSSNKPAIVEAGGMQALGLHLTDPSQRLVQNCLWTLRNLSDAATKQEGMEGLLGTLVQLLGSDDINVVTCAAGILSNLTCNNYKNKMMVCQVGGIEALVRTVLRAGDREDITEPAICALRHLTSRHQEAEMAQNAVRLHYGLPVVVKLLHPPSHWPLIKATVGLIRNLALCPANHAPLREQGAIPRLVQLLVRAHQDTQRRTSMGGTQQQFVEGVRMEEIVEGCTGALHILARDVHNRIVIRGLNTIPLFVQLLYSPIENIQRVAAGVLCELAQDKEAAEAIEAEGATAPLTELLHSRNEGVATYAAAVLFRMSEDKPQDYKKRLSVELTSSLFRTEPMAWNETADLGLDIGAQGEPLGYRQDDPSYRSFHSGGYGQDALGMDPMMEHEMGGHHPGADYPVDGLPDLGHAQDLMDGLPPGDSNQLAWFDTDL
T2 sequence (O00512 whole entry): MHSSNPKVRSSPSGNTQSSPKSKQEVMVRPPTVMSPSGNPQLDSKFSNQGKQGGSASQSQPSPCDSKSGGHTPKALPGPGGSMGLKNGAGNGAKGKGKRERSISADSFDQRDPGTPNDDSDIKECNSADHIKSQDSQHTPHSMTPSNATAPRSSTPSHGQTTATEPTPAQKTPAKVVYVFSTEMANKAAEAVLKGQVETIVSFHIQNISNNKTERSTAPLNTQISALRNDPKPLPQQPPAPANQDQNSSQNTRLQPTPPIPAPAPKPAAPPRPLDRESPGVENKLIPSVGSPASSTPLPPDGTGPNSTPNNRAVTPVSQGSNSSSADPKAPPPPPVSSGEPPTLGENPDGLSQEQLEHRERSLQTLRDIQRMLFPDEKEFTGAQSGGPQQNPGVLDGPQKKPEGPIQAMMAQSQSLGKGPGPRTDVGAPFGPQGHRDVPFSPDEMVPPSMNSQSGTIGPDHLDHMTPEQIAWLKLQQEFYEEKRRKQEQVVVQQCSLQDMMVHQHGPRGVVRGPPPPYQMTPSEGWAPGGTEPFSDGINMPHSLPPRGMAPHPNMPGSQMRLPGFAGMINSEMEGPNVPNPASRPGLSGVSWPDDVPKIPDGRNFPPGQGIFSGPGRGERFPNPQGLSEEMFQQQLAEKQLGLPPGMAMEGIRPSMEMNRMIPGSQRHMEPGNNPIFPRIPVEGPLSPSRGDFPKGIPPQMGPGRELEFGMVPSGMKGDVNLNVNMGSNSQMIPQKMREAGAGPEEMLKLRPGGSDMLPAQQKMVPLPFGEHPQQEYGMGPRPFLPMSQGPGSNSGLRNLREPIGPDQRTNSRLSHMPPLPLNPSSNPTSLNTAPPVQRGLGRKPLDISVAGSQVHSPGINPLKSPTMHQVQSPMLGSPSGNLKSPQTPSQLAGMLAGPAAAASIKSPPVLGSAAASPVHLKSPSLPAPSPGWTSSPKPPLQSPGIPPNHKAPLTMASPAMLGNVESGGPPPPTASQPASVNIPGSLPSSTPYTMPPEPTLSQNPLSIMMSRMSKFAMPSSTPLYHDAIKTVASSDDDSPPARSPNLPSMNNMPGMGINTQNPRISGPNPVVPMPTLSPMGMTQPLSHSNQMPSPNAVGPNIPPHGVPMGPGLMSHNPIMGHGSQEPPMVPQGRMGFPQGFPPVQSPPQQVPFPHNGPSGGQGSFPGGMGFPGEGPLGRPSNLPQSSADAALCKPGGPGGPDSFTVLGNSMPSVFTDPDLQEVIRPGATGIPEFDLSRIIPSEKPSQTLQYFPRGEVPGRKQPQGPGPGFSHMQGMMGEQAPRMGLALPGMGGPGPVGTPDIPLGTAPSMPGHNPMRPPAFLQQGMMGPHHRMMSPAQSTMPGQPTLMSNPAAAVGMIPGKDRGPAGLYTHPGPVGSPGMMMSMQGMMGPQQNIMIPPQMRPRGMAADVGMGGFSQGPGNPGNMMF
Experiment: Inhibition of full length beta-catenin (1 to 781 residues) (unknown origin) expressed in Escherichia coli BL21 (DE3)-N-terminal biotinylated human BCL9 (350 to 375 residues) protein-protein interaction incubated for 1 hr by Alphascreen assay
Conditions: not given

Compound | IC50 | Ki
CC(C)N(Cc1ccc(-c2cn[nH]c2)cc1)C(=O)[C@@H]1CCCN(c2cccc(OC(C)(C)C(=O)N3CCNCC3)c2)C1 | 8.9 µM | 8 µM
CC(C)(Oc1cccc(N2CCC[C@@H](C(=O)N(Cc3ccc(-c4c[nH]c5ccccc45)cc3)C3CC3)C2)c1)C(=O)N1CCNCC1 | 1.4 µM | 1.2 µM
CC(C)(Oc1cccc(N2CCC[C@@H](C(=O)N(Cc3ccc(-c4cn[nH]c4)cc3)CC3CC3)C2)c1)C(=O)N1CCNCC1 | 18 µM | 15 µM
CC(C)(Oc1cccc(N2CCC[C@@H](C(=O)N(Cc3ccc(-c4ccnc5[nH]ccc45)cc3)C3CC3)C2)c1)C(=O)N1CCNCC1 | 2.2 µM | 1.8 µM
CC(C)(Oc1cccc(N2CCC[C@@H](C(=O)N(Cc3ccc(-c4c[nH]c5ncccc45)cc3)C3CC3)C2)c1)C(=O)N1CCNCC1 | 0.96 µM | 0.85 µM
CC(C)(Oc1cccc(N2CCC[C@@H](C(=O)N(Cc3ccc(-c4cn[nH]c4)cc3)C3CC3)C2)c1)C(=O)N1CCC2(CNC2)C1 | 20 µM | 16 µM
CC(C)(Oc1cccc(N2CCC[C@@H](C(=O)N(Cc3ccc(-c4cn[nH]c4)cc3)C3CC3)C2)c1)C(=O)N1CCC2(CCNC2)C1 (some centres not stated) | 12 µM | 9.8 µM
O=C([C@@H]1CCCN(c2cccc(OC3(C(=O)N4CCNCC4)CC3)c2)C1)N(Cc1ccc(-c2cn[nH]c2)cc1)C1CC1 | 29 µM | 24 µM
CC(C)(Oc1cccc(N2CCC[C@@H](C(=O)NCc3ccc(-c4cn[nH]c4)cc3)C2)c1)C(=O)N1CCNCC1 | 81 µM | 73 µM
CC(C)(Oc1cccc(N2CCC[C@@H](C(=O)N(Cc3ccc(-c4cccc5[nH]ncc45)cc3)C3CC3)C2)c1)C(=O)N1CCNCC1 | 2.5 µM | 2 µM
CN(Cc1ccc(-c2cn[nH]c2)cc1)C(=O)[C@@H]1CCCN(c2cccc(OC(C)(C)C(=O)N3CCNCC3)c2)C1 | 28 µM | 25 µM
CC(C)(Oc1cccc(N2CCC[C@@H](C(=O)N(Cc3ccc(-c4cn[nH]c4)cc3)C3CCCC3)C2)c1)C(=O)N1CCNCC1 | 7.6 µM | 6.8 µM
CC(C)(Oc1cccc(N2CCC[C@@H](C(=O)N(Cc3ccc(-c4cn[nH]c4)cc3)C3CCC3)C2)c1)C(=O)N1CCNCC1 | 12 µM | 11 µM
O=C(C(Oc1cccc(N2CCC[C@@H](C(=O)N(Cc3ccc(-c4cn[nH]c4)cc3)C3CC3)C2)c1)c1ccccc1)N1CCNCC1 (some centres not stated) | 23 µM | 21 µM
O=C([C@@H]1CCCN(c2cccc(OC3(C(=O)N4CCNCC4)CCCC3)c2)C1)N(Cc1ccc(-c2cn[nH]c2)cc1)C1CC1 | 43 µM | 39 µM
CC(C)(Oc1cccc(N2CCC[C@@H](C(=O)N(Cc3ccc(-c4cn[nH]c4)cc3)C3CC3)C2)c1)C(=O)N1C[C@H]2CNC[C@H]2C1 | 8.3 µM | 6.8 µM
CC(C)(Oc1cccc(N2CCC[C@@H](C(=O)N(Cc3ccc(-c4cn[nH]c4)cc3)C3CC3)C2)c1)C(=O)N1CC2(CCNCC2)C1 | 38 µM | 31 µM
CC(C)(Oc1cccc(N2CCC[C@@H](C(=O)N(Cc3ccc(-c4cn[nH]c4)cc3)C3CC3)C2)c1)C(=O)N1CC2(CNC2)C1 | 44 µM | 37 µM

Molecular target: CYP2C9 (Homo sapiens, UniProt P11712)
Sequence (P11712 whole entry): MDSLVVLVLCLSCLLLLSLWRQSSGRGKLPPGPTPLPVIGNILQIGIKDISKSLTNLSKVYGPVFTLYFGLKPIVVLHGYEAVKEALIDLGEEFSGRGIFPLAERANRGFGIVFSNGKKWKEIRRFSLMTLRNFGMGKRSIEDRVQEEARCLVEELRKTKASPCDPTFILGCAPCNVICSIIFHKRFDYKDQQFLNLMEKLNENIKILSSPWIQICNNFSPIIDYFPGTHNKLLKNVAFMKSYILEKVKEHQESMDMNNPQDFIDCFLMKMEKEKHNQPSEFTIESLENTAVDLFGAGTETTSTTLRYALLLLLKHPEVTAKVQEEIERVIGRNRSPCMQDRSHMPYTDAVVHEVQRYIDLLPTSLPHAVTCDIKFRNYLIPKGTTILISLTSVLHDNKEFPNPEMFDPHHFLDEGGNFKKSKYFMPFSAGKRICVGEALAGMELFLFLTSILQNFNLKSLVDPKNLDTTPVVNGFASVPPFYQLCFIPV
Experiment: Inhibition of CYP2C9 in human liver microsomes using tolbutamide as substrate at 10 uM in presence of NADPH incubated for 10 mins
Format: ADME, Microsome
Conditions: probe tolbutamide

Compound | inhibition at 10 min, 10 µM
CC(C)(Oc1cccc(N2CCC[C@@H](C(=O)N(Cc3ccc(-c4cn[nH]c4)cc3)C3CC3)C2)c1)C(=O)N1CCNCC1 | 83%

Molecular target: CYP2D6 (Homo sapiens, UniProt P10635)
Sequence (P10635 whole entry): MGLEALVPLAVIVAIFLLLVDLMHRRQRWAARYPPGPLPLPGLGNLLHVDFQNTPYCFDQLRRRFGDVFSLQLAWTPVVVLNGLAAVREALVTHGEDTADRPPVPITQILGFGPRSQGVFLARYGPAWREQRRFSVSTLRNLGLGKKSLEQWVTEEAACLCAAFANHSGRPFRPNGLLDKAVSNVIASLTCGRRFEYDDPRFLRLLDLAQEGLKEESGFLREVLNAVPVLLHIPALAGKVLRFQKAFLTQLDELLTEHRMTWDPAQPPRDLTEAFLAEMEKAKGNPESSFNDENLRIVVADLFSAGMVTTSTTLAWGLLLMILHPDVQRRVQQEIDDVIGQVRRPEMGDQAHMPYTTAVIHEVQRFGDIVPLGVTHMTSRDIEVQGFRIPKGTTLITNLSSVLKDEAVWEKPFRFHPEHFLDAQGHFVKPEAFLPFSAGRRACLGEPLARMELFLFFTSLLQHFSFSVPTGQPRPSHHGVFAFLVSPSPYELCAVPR
Experiment: Inhibition of CYP2D6 in human liver microsomes using bufuralol as substrate at 10 uM in presence of NADPH incubated for 10 mins
Format: ADME, Microsome
Conditions: probe bufuralol

Compound | inhibition at 10 min, 10 µM
CC(C)(Oc1cccc(N2CCC[C@@H](C(=O)N(Cc3ccc(-c4cn[nH]c4)cc3)C3CC3)C2)c1)C(=O)N1CCNCC1 | 73%

System: MDA-MB-468
Experiment: Antiproliferative activity against human MDA-MB-468 cells assessed as inhibition of cell growth measured by MTS method
Format: functional, cell-based
Conditions: not given

Compound | IC50
CC(C)(Oc1cccc(N2CCC[C@@H](C(=O)N(Cc3ccc(-c4ccnc5[nH]ccc45)cc3)C3CC3)C2)c1)C(=O)N1CCNCC1 | 5.5 µM
CC(C)(Oc1cccc(N2CCC[C@@H](C(=O)N(Cc3ccc(-c4c[nH]c5ncccc45)cc3)C3CC3)C2)c1)C(=O)N1CCNCC1 | 5 µM

System: not listed separately
Experiment: Inhibition of Wnt/beta-catenin transactivation signalling in human SW480 cells by TOPFlash reporter gene assay
Format: cell-based
Conditions: not given

Compound | IC50
CC(C)(Oc1cccc(N2CCC[C@@H](C(=O)N(Cc3ccc(-c4ccnc5[nH]ccc45)cc3)C3CC3)C2)c1)C(=O)N1CCNCC1 | 15 µM
CC(C)(Oc1cccc(N2CCC[C@@H](C(=O)N(Cc3ccc(-c4c[nH]c5ncccc45)cc3)C3CC3)C2)c1)C(=O)N1CCNCC1 | 11 µM

System: MCF-10A
Experiment: Antiproliferative activity against human MCF-10A cells assessed as inhibition of cell growth measured by MTS method
Format: functional, cell-based
Conditions: not given

Compound | IC50
CC(C)(Oc1cccc(N2CCC[C@@H](C(=O)N(Cc3ccc(-c4ccnc5[nH]ccc45)cc3)C3CC3)C2)c1)C(=O)N1CCNCC1 | 29 µM
CC(C)(Oc1cccc(N2CCC[C@@H](C(=O)N(Cc3ccc(-c4c[nH]c5ncccc45)cc3)C3CC3)C2)c1)C(=O)N1CCNCC1 | 24 µM
